What was measured:
[1] = tested on: Swiss Albino mice with induced infection (Staphylococcus aureus) and aseptic inflammation (turpentine); test: Biodistribution in mice with induced infection and aseptic inflammation; type: in vivo; conditions: for Urine radioactivity: per sample; for blood clearance / blood radioactivity course: within 120 min
Protocol: The in vivo behavior of HPLC purified technetium-99m complexes 1′–6′ was evaluated through biodistribution studies in Swiss Albino mice (40 ± 5 g) with induced infection and aseptic inflammation. The experiment was conducted in accordance with the guidelines for the protection of animals used for scientific purposes. Mice were divided into groups and prepared for biodistribution studies by inducing infection and aseptic inflammation. Twenty-four hours prior to the injection of the technetium complexes, the left thigh muscle of each mouse was inoculated with 50 µL of a Staphylococcus aureus suspension (1 × 10^6 CFU/mL) to induce infection. Aseptic inflammation was induced in the right thigh muscle by injecting 50 µL of turpentine oil. The technetium-99m complexes were administered intravenously via the tail vein. Each mouse received an injection of 0.037 MBq of the respective technetium-99m complex. The biodistribution was studied at two different time points, 15 min and 120 min post-injection. At each time point, the mice were sacrificed under anesthesia. Blood samples were obtained by cardiac puncture. The organs of interest were collected after dissection, including the liver, heart, kidneys, stomach, intestines, spleen, muscle (normal, infected, and inflamed), lungs, pancreas, and urinary bladder. The organs were made free from adhering tissues and transferred into pre-weighed counting vials. The radioactivity of the collected samples was measured using a shielded well-type gamma counter. The results were expressed as a percentage of injected dose per gram of tissue (% ID/g). The radioactivity ratios in infected muscle to normal muscle and inflamed muscle to normal muscle were calculated to assess the specificity and selectivity of the technetium complexes for infection and inflammation.

[2] = Lipophilicity: partition between n-octanol and PBS pH 7.4; type: physicochemical; conditions: n-octanol/PBS pH 7.4, M: 99mTc, three determinations
Protocol: The lipophilicity of HPLC purified technetium-99m complexes 1′–6′ was determined by measuring the partition coefficient (logD7.4) between n-octanol and phosphate-buffered saline (PBS, pH 7.4) based on established literature methods and is briefly described here. An aliquot of each technetium-99m complex was added to a mixture of equal volumes (2.0 mL each) of n-octanol and PBS (pH 7.4) in a 5 mL centrifuge tube. The mixture was vigorously vortexed for 2 min and then centrifuged at 5000 rpm for 5 min to ensure complete phase separation. After centrifugation, 0.1 mL aliquots from both the n-octanol and PBS phases were sampled and their radioactivity was measured using a gamma counter. The log P was calculated using the following equation: […]. The procedure was repeated three times for each complex to ensure reproducibility.

[3] = Cysteine and histidine challenge (transchelation); type: physicochemical; conditions: 37 °C, 6 h
Protocol: (§1) The preparation of the ^99mTc-labeled complexes from synthesis to HPLC purification was completed within 1.5 h. Then, the stability of HPLC purified technetium-99m complexes 1′–6, with an RCP of 99% (based on HPLC), was assessed by monitoring their RCP over time and under various conditions using HPLC analysis based on established literature methods and is briefly described here.
Challenge experiments were performed by incubating the purified complexes with 10^−3 M solutions of cysteine and histidine at 37 °C. For each complex (1′–6′), 0.2 mL of the purified complex was mixed with 0.2 mL of the cysteine or histidine solution and incubated for 6 h. Aliquots were taken at the end of the incubation period and analyzed by HPLC.

[4] = Stability of HPLC-purified 99mTc complexes (HPLC); type: physicochemical; conditions: HPLC-purified complex, room temperature, periodic HPLC
Protocol: as §1
After purification by HPLC, the stability of the isolated technetium-99m complexes was evaluated over 6 h. The purified complexes were stored at room temperature, and aliquots were taken at 1, 3, and 6 h for HPLC analysis.

Molecule | Liver radioactivity ([1]; 15 min post i.v. injection) [%ID/g] | Lungs radioactivity ([1]; 15 min post i.v. injection) [%ID/g] | Muscle (normal) radioactivity ([1]; 15 min post i.v. injection) [%ID/g] | Pancreas radioactivity ([1]; 15 min post i.v. injection) [%ID/g] | Spleen radioactivity ([1]; 15 min post i.v. injection) [%ID/g] | Intestines radioactivity ([1]; 120 min post i.v. injection) [%ID/g] | Kidneys radioactivity ([1]; 120 min post i.v. injection) [%ID/g] | Liver radioactivity ([1]; 120 min post i.v. injection) [%ID/g] | Lungs radioactivity ([1]; 120 min post i.v. injection) [%ID/g] | Muscle (normal) radioactivity ([1]; 120 min post i.v. injection) [%ID/g] | Pancreas radioactivity ([1]; 120 min post i.v. injection) [%ID/g] | Spleen radioactivity ([1]; 120 min post i.v. injection) [%ID/g] | LogD7.4 [2] | Aseptic Infl. (turpentine inflamed muscle) radioactivity ([1]; 15 min post i.v. injection) [%ID/g] | Blood radioactivity ([1]; 15 min post i.v. injection) [%ID/g] | Heart radioactivity ([1]; 15 min post i.v. injection) [%ID/g] | Infection (S. aureus infected muscle) radioactivity ([1]; 15 min post i.v. injection) [%ID/g] | Intestines radioactivity ([1]; 15 min post i.v. injection) [%ID/g] | Kidneys radioactivity ([1]; 15 min post i.v. injection) [%ID/g] | Stomach radioactivity ([1]; 15 min post i.v. injection) [%ID/g] | further results
fac-[M(CO)3(Cip-DTC)(DMPP)] [complex 5′] | 35.51 ± 0.97 | 9.87 ± 0.89 | 0.40 ± 0.06 | 0.83 ± 0.18 | 18.04 ± 0.73 | 9.98 ± 1.22 | 5.69 ± 1.44 | 31.27 ± 5.71 | 5.37 ± 0.47 | 1.34 ± 0.09 | 3.68 ± 0.48 | 7.64 ± 1.22 | 2.0 | – | – | – | – | – | – | – | –
fac-[M(CO)3(Cip-DTC)(ADAP)] [complex 6′] | 20.95 ± 1.56 | 7.13 ± 0.35 | 1.01 ± 0.12 | 3.70 ± 0.26 | 6.40 ± 0.66 | 10.24 ± 1.11 | 4.47 ± 0.52 | 22.98 ± 2.70 | 3.06 ± 0.10 | 0.69 ± 0.05 | 2.27 ± 0.37 | 2.55 ± 0.27 | 1.6 | 1.10 ± 0.06 | 2.18 ± 0.06 | 4.27 ± 0.42 | 0.94 ± 0.09 | 3.22 ± 0.32 | 8.05 ± 0.22 | 0.98 ± 0.29 | Urine radioactivity ([1]; 15 min post i.v. injection): 0.37 ± 0.08 %ID; Aseptic Infl. (turpentine inflamed muscle) radioactivity ([1]; 120 min post i.v. injection): 0.66 ± 0.10 %ID/g; Blood radioactivity ([1]; 120 min post i.v. injection): 1.33 ± 0.10 %ID/g; Heart radioactivity ([1]; 120 min post i.v. injection): 1.94 ± 0.31 %ID/g; Infection (S. aureus infected muscle) radioactivity ([1]; 120 min post i.v. injection): 0.69 ± 0.09 %ID/g; Stomach radioactivity ([1]; 120 min post i.v. injection): 3.14 ± 0.69 %ID/g; Urine radioactivity ([1]; 120 min post i.v. injection): 1.49 ± 0.23 %ID
CP(c1ccccc1)c1ccccc1.O=C(O)c1cn(C2CC2)c2cc(N3CCN(C(=S)[S][99Tc])CC3)c(F)cc2c1=O.[C-]#[O+].[C-]#[O+].[C-]#[O+] [complex 4′, fac-[M(CO)3(Cip-DTC)(MePPh2)]] | 42.11 ± 1.70 | 11.15 ± 0.19 | 0.56 ± 0.07 | 1.38 ± 0.21 | 21.59 ± 0.98 | 7.97 ± 0.12 | 11.10 ± 0.70 | 31.09 ± 0.72 | 9.41 ± 1.15 | – | 3.21 ± 0.28 | 8.14 ± 0.93 | 1.8 | 0.77 ± 0.12 | 3.20 ± 0.47 | 4.36 ± 0.46 | 0.88 ± 0.15 | 1.27 ± 0.16 | 5.92 ± 0.60 | 1.11 ± 0.50 | Urine radioactivity ([1]; 15 min post i.v. injection): 0.01 ± 0.00 %ID; Aseptic Infl. (turpentine inflamed muscle) radioactivity ([1]; 120 min post i.v. injection): 1.88 ± 0.26 %ID/g; Blood radioactivity ([1]; 120 min post i.v. injection): 1.48 ± 0.11 %ID/g; Heart radioactivity ([1]; 120 min post i.v. injection): 8.85 ± 0.63 %ID/g; Infection (S. aureus infected muscle) radioactivity ([1]; 120 min post i.v. injection): 2.83 ± 0.30 %ID/g; Stomach radioactivity ([1]; 120 min post i.v. injection): 2.23 ± 0.37 %ID/g; Urine radioactivity ([1]; 120 min post i.v. injection): 0.04 ± 0.03 %ID
COc1ccc(P(c2ccc(OC)cc2)c2ccc(OC)cc2)cc1.O=C(O)c1cn(C2CC2)c2cc(N3CCN(C(=S)[S][99Tc])CC3)c(F)cc2c1=O.[C-]#[O+].[C-]#[O+].[C-]#[O+] [complex 3′, fac-[^99mTc(CO)3(Cip-DTC)(TMPP)]] | 47.48 ± 1.30 | 9.58 ± 0.86 | – | 0.29 ± 0.13 | 33.88 ± 2.81 | 3.52 ± 0.19 | 5.65 ± 0.78 | 27.58 ± 0.66 | 8.67 ± 0.72 | 0.34 ± 0.02 | 0.93 ± 0.20 | 23.10 ± 1.74 | 2.7 | 0.15 ± 0.07 | 2.54 ± 0.25 | 0.74 ± 0.32 | 0.27 ± 0.11 | 0.36 ± 0.25 | 1.40 ± 0.57 | 0.64 ± 0.61 | Urine radioactivity ([1]; 15 min post i.v. injection): 0.00 ± 0.00 %ID; Aseptic Infl. (turpentine inflamed muscle) radioactivity ([1]; 120 min post i.v. injection): 0.52 ± 0.23 %ID/g; Blood radioactivity ([1]; 120 min post i.v. injection): 6.71 ± 0.50 %ID/g; Heart radioactivity ([1]; 120 min post i.v. injection): 3.48 ± 0.23 %ID/g; Infection (S. aureus infected muscle) radioactivity ([1]; 120 min post i.v. injection): 1.14 ± 0.05 %ID/g; Stomach radioactivity ([1]; 120 min post i.v. injection): 1.21 ± 0.32 %ID/g; aseptic inflammation/normal muscle ratio ([1]; 120 min post i.v. injection): 1.51; infected/normal muscle ratio ([1]; 120 min post i.v. injection): 3.32; Urine radioactivity ([1]; 120 min post i.v. injection): 0.01 ± 0.02 %ID; blood clearance / blood radioactivity course [1]: increasing
fac-[^99mTc(CO)3(Cip-DTC)(H2O)] [complex 1′] | 22.05 ± 1.40 | 6.41 ± 1.14 | 0.18 ± 0.02 | 0.91 ± 0.04 | 9.79 ± 1.69 | – | 5.76 ± 0.65 | 25.96 ± 2.23 | 4.33 ± 0.41 | 0.18 ± 0.01 | – | 5.24 ± 0.45 | 1.2 | – | – | – | 1.06 ± 0.20 | 0.71 ± 0.11 | 5.16 ± 0.32 | 0.91 ± 0.20 | stability in cysteine ([3]; 10^-3 M cysteine): 90%; stability in histidine ([3]; 10^-3 M histidine): 91%; stability post-purification (integrity, HPLC) [4]: 92%; blood clearance / blood radioactivity course [1]: slow blood clearance
O=C(O)c1cn(C2CC2)c2cc(N3CCN(C(=S)[S][99Tc])CC3)c(F)cc2c1=O.[C-]#[O+].[C-]#[O+].[C-]#[O+].c1ccc(P(c2ccccc2)c2ccccc2)cc1 [complex 2′, fac-[^99mTc(CO)3(Cip-DTC)(PPh3)]] | 32.36 ± 3.58 | 6.66 ± 1.45 | 0.90 ± 0.09 | 0.47 ± 0.20 | 38.44 ± 3.92 | 1.08 ± 0.07 | 6.50 ± 0.36 | 27.16 ± 4.02 | 10.20 ± 0.12 | 0.68 ± 0.05 | 1.04 ± 0.04 | 37.02 ± 4.43 | 2.3 | 1.21 ± 0.07 | 4.51 ± 1.32 | 1.23 ± 0.36 | 2.93 ± 0.09 | 0.14 ± 0.03 | 1.30 ± 0.13 | 0.55 ± 0.23 | aseptic inflammation/normal muscle ratio ([1]; 15 min post i.v. injection): 1.34; infected/normal muscle ratio ([1]; 15 min post i.v. injection): 3.29; Urine radioactivity ([1]; 15 min post i.v. injection): 3.95 ± 1.30 %ID; Aseptic Infl. (turpentine inflamed muscle) radioactivity ([1]; 120 min post i.v. injection): 0.86 ± 0.10 %ID/g; Blood radioactivity ([1]; 120 min post i.v. injection): 5.19 ± 0.81 %ID/g; Heart radioactivity ([1]; 120 min post i.v. injection): 3.97 ± 0.25 %ID/g; Infection (S. aureus infected muscle) radioactivity ([1]; 120 min post i.v. injection): 3.12 ± 0.14 %ID/g; Stomach radioactivity ([1]; 120 min post i.v. injection): 1.23 ± 0.14 %ID/g; aseptic inflammation/normal muscle ratio ([1]; 120 min post i.v. injection): 1.28; infected/normal muscle ratio ([1]; 120 min post i.v. injection): 4.62; Urine radioactivity ([1]; 120 min post i.v. injection): 4.04 ± 1.23 %ID; blood clearance / blood radioactivity course [1]: relatively stable

— PMC11435093, “Synthesis and Evaluation of ^99mTc(CO)3 Complexes with Ciprofloxacin Dithiocarbamate for Infection Imaging” (Pharmaceutics, 2024)
